Assay results taken from patent publication US20250163104A1, “MACROCYCLIC IMMUNOMODULATORS” (priority 2021, published 2025).
Where a SMILES comes first, the peptide text is derived from it. Bridges are numbered along the chain shown (N, C = ends). [ ]: non-standard residue; d: D form. The star is where a group is joined. ξ: configuration not given here. Phe(4-COOH) = N[C@@H](Cc1ccc(C(=O)O)cc1)C(=O)O; Bip = N[C@@H](Cc1ccc(-c2ccccc2)cc1)C(=O)O; Phe(3-Me) = Cc1cccc(C[C@H](N)C(=O)O)c1; Val(3-OH) = CC(C)(O)[C@H](N)C(=O)O; 4Pal = N[C@@H](Cc1ccncc1)C(=O)O; Cha = N[C@@H](CC1CCCCC1)C(=O)O; Cit = NC(=O)NCCC[C@H](N)C(=O)O; Ile(3ξ) = CCC(C)[C@H](N)C(=O)O; ξIle = CC[C@H](C)C(N)C(=O)O; Carboxymethyl = O=C(O)C*; Orn = NCCC[C@H](N)C(=O)O; Pra = C#CC[C@H](N)C(=O)O; Dab = NCC[C@H](N)C(=O)O; Dap = NC[C@H](N)C(=O)O; ξPra = C#CCC(N)C(=O)O; Piv = CC(C)(C)C(=O)*

The molecules below were run against T1, human PD-1 / PD-L1-Ig binding on Jurkat cell line over-expressing human PD-1 (Jurkat-PD-1) (Homo sapiens, UniProt Q15116) (assay: Jurkat-PD-1 Cell Binding High-Content Screening Assay (CBA)). Details: Jurkat-PD-1 cells, PE-labeled PD-L1-Ig 20 nM final; read-out: Jurkat HPD1_PDL1 IC50.
T1 construct: expressed in transfected cells; host or cells: Jurkat
Type: cell-based
Method in brief: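 Jurkat cells over-expressing human PD-1, in DMEM/10% FCS, pre-incubated with compound 2 h at 37° C. PE-labeled human PD-L1-Ig (20 nM final) added for 1 h; cells fixed in paraformaldehyde with Hoechst 33342 nuclear stain, washed, and bound fluorescence quantified by high-content imaging.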

T1 sequence (Q15116 25-288): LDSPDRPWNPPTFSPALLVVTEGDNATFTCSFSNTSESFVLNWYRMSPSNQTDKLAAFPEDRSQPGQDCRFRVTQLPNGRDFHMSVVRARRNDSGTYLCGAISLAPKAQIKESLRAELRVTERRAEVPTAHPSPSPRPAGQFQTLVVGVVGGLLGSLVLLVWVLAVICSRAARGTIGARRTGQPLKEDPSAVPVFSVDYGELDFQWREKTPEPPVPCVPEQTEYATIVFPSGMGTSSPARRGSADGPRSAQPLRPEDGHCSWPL

| SMILES | IC50 |
| --- | --- |
| C#CC[C@H](NC(=O)[C@H](CCN)NC(=O)[C@@H]1CSCC(=O)N[C@@H](Cc2ccncc2)C(=O)N[C@@H](Cc2ccc(C(=O)O)cc2)C(=O)N[C@@H](CC(=O)O)C(=O)N[C@@H](Cc2cccc(C)c2)C(=O)N[C@@H](Cc2ccc(OCC(=O)O)cc2)C(=O)N[C@@H](Cc2ccc(-c3ccccc3)cc2)C(=O)N[C@@H](Cc2ccc(OCC(=O)O)cc2)C(=O)N[C@@H](CCCN)C(=O)N[C@H](CC(C)C)C(=O)N[C@@H](CCN)C(=O)N[C@@H](CC2CCCCC2)C(=O)N[C@@H](C(C)(C)O)C(=O)N[C@@H](CO)C(=O)N1)C(=O)O [Compound 2318] ({CH2CO}-[4Pal][Phe(4-COOH)]D[Phe(3-Me)]Y(Carboxymethyl)[Bip]Y(Carboxymethyl)[Orn][dL][Dab][Cha][Val(3-OH)]SC[Dab][Pra]-OH; thioether N-14) | 678 nM |
| Cc1cccc(C[C@@H]2NC(=O)[C@H](CC(=O)O)NC(=O)[C@H](Cc3ccc(C(=O)O)cc3)NC(=O)[C@H](Cc3ccncc3)NC(=O)CSC[C@@H](C(N)=O)NC(=O)[C@H]([C@@H](C)O)NC(=O)[C@H](C(C)C)NC(=O)[C@H](CC(C)C)NC(=O)[C@H](CCN)NC(=O)[C@@H](CC(C)C)NC(=O)[C@H](CCCN)NC(=O)[C@H](CCCNC(N)=O)NC(=O)[C@H](Cc3ccc(-c4ccccc4)cc3)NC(=O)[C@H](C(C)C)NC2=O)c1 [Compound 2267] ({CH2CO}-[4Pal][Phe(4-COOH)]D[Phe(3-Me)]V[Bip][Cit][Orn][dL][Dab]LVTC-NH2; thioether N-14) | 44.8 nM |
| CC(=O)NCCC[C@@H]1NC(=O)[C@H](Cc2ccc(OCC(=O)O)cc2)NC(=O)[C@H](Cc2ccc(-c3ccccc3)cc2)NC(=O)[C@H](Cc2ccc(O)cc2)NC(=O)[C@H](Cc2cccc(C)c2)NC(=O)[C@H](CC(=O)O)NC(=O)[C@H](Cc2ccc(OCC(=O)O)cc2)NC(=O)[C@H](CCCNC(=N)N)NC(=O)CSC[C@@H](C(N)=O)NC(=O)[C@H]([C@@H](C)O)NC(=O)[C@H](C(C)C)NC(=O)[C@H](CC2CCCCC2)NC(=O)[C@H](CCN)NC(=O)[C@@H](CC(C)C)NC1=O [Compound 2051] ({CH2CO}-RY(Carboxymethyl)D[Phe(3-Me)]Y[Bip]Y(Carboxymethyl)[Orn](Ac)[dL][Dab][Cha]VTC-NH2; thioether N-14) | 48.5 nM |
| CC(C)C[C@H]1NC(=O)[C@H](CCCN)NC(=O)[C@H](CCC(=O)O)NC(=O)[C@H](Cc2ccc(-c3ccccc3)cc2)NC(=O)[C@H](C(C)C)NC(=O)[C@H](Cc2c[nH]c3ccccc23)NC(=O)[C@H](CC(=O)O)NC(=O)[C@H](Cc2ccc(C#N)cc2)NC(=O)[C@H](Cc2ccc(OCC(=O)O)cc2)NC(=O)CSC[C@@H](C(=O)N[C@@H](C)C(N)=O)NC(=O)[C@H]([C@@H](C)O)NC(=O)[C@H](C(C)C)NC(=O)[C@H](CC2CCCCC2)NC(=O)[C@H](CCN)NC1=O [Compound 2188] | 24.1 nM |
| CC[C@H](C)C1NC(=O)[C@H](Cc2ccc(-c3ccccc3)cc2)NC(=O)[C@H](C(C)C)NC(=O)[C@H](Cc2c[nH]c3ccccc23)NC(=O)[C@H](CC(N)=O)NC(=O)[C@H](Cc2ccc(O)cc2)NC(=O)[C@H](CN)NC(=O)CSC[C@@H](C(=O)N[C@@H](C)C(N)=O)NC(=O)[C@H]([C@@H](C)O)NC(=O)[C@H](C(C)C)NC(=O)[C@H](CC(C)C)NC(=O)[C@H](CCN)NC(=O)[C@@H](CC(C)C)NC(=O)[C@H](CN)NC1=O (stereo partly drawn) [Compound 1089] ({CH2CO}-[Dap]YNWV[Bip][ξIle][Dap][dL][Dab]LVTCA-NH2; thioether N-14) | 26.7 nM |
| CCC(C)[C@@H]1NC(=O)[C@H](Cc2ccc(-c3ccccc3)cc2)NC(=O)[C@H](C(C)C)NC(=O)[C@H](Cc2cccc(C)c2)NC(=O)[C@H](CC(=O)O)NC(=O)[C@H](Cc2ccc(C(=O)O)cc2)NC(=O)[C@H](Cc2ccncc2)NC(=O)CSC[C@@H](C(N)=O)NC(=O)[C@H](CC(=O)O)NC(=O)[C@H](C(C)C)NC(=O)[C@H](CC2CCCCC2)NC(=O)[C@H](CCN)NC(=O)[C@@H](CC(C)C)NC(=O)[C@H](CCCN)NC1=O (stereo partly drawn) [Compound 2278] ({CH2CO}-[4Pal][Phe(4-COOH)]D[Phe(3-Me)]V[Bip][Ile(3ξ)][Orn][dL][Dab][Cha]VDC-NH2; thioether N-14) | 37.6 nM |

The next molecules have a lower IC50 than those just listed; values first:

| IC50 | SMILES |
| --- | --- |
| 21.4 nM | C#CCC(NC(=O)[C@H](CCN)NC(=O)[C@@H]1CSCC(=O)N[C@@H](Cc2ccncc2)C(=O)N[C@@H](Cc2ccc(OCC(=O)O)cc2)C(=O)N[C@@H](CC(=O)O)C(=O)N[C@@H](Cc2c[nH]c3ccccc23)C(=O)N[C@@H](C(C)C)C(=O)N[C@@H](Cc2ccc(-c3ccccc3)cc2)C(=O)N[C@@H]([C@@H](C)CC)C(=O)N[C@@H](CCCN)C(=O)N[C@H](CC(C)C)C(=O)N[C@@H](CCN)C(=O)N[C@@H](CC(C)C)C(=O)N[C@@H](C(C)C)C(=O)N[C@@H]([C@@H](C)O)C(=O)N1)C(N)=O (stereo partly drawn) [Compound 1765] ({CH2CO}-[4Pal]Y(Carboxymethyl)DWV[Bip]I[Orn][dL][Dab]LVTC[Dab][ξPra]-NH2; thioether N-14) |
| 11 nM | CC(C)C[C@H]1NC(=O)[C@H](CCCN)NC(=O)[C@H](CN)NC(=O)[C@H](Cc2ccc(-c3ccccc3)cc2)NC(=O)[C@H](C(C)C)NC(=O)[C@H](Cc2c[nH]c3ccccc23)NC(=O)[C@H](CC(=O)O)NC(=O)[C@H](Cc2ccc(C(=O)O)cc2)NC(=O)[C@H](Cc2ccc(OCC(=O)O)cc2)NC(=O)CSC[C@@H](C(=O)N[C@@H](C)C(N)=O)NC(=O)[C@H]([C@@H](C)O)NC(=O)[C@H](C(C)C)NC(=O)[C@H](CC2CCCCC2)NC(=O)[C@H](CCN)NC1=O [Compound 1384] |
| 14.2 nM | Cc1cccc(C[C@@H]2NC(=O)[C@H](CC(=O)O)NC(=O)[C@H](Cc3ccc(OCC(=O)O)cc3)NC(=O)[C@H](CN)NC(=O)CSC[C@@H](C(N)=O)NC(=O)[C@H](CC(=O)O)NC(=O)[C@H](C(C)C)NC(=O)[C@H](CC3CCCCC3)NC(=O)[C@H](CCN)NC(=O)[C@@H](CC(C)C)NC(=O)[C@H](CCCN)NC(=O)[C@H](Cc3ccc(OCC(=O)O)cc3)NC(=O)[C@H](Cc3ccc(-c4ccccc4)cc3)NC(=O)[C@H](Cc3ccc(OCC(=O)O)cc3)NC2=O)c1 [Compound 1781] ({CH2CO}-[Dap]Y(Carboxymethyl)D[Phe(3-Me)]Y(Carboxymethyl)[Bip]Y(Carboxymethyl)[Orn][dL][Dab][Cha]VDC-NH2; thioether N-14) |
| 18.2 nM | CC(C)C[C@H]1NC(=O)[C@H](CCCN)NC(=O)[C@H](CCCNC(N)=O)NC(=O)[C@H](Cc2ccc(-c3ccccc3)cc2)NC(=O)[C@H](C(C)C)NC(=O)[C@H](Cc2c[nH]c3ccccc23)NC(=O)[C@H](CC(=O)O)NC(=O)[C@H](CCc2ccncc2)NC(=O)[C@H](CN)NC(=O)CSC[C@@H](C(=O)N[C@@H](C)C(N)=O)NC(=O)[C@H]([C@@H](C)O)NC(=O)[C@H](C(C)C)NC(=O)[C@H](CC2CCCCC2)NC(=O)[C@H](CCN)NC1=O [Compound 2104] |
| 16.2 nM | Cc1cccc(C[C@@H]2NC(=O)[C@H](CC(=O)O)NC(=O)[C@H](Cc3ccc(OCC(=O)O)cc3)NC(=O)[C@H](CN)NC(=O)CSC[C@@H](C(=O)N[C@@H](CCN)C(N)=O)NC(=O)[C@H]([C@@H](C)O)NC(=O)[C@H](C(C)C)NC(=O)[C@H](CC3CCCCC3)NC(=O)[C@H](CCNC(=O)C(C)(C)C)NC(=O)[C@@H](CC(C)C)NC(=O)[C@H](CCN)NC(=O)[C@H](Cc3ccc(OCC(=O)O)cc3)NC(=O)[C@H](Cc3ccc(-c4ccccc4)cc3)NC(=O)[C@H](Cc3ccc(OCC(=O)O)cc3)NC2=O)c1 [Compound 2063] ({CH2CO}-[Dap]Y(Carboxymethyl)D[Phe(3-Me)]Y(Carboxymethyl)[Bip]Y(Carboxymethyl)[Dab][dL][Dab](Piv)[Cha]VTC[Dab]-NH2; thioether N-14) |
| 15.9 nM | CC(C)C[C@@H]1NC(=O)[C@H](Cc2c[nH]c3ccccc23)NC(=O)[C@H](CC(=O)O)NC(=O)[C@H](Cc2ccncc2)NC(=O)[C@H](Cc2ccc(OCC(=O)O)cc2)NC(=O)CSC[C@@H](C(=O)NCC(N)=O)NC(=O)[C@H](CO)NC(=O)[C@H](C(C)C)NC(=O)[C@H](CC2CCCCC2)NC(=O)[C@H](CCN)NC(=O)[C@@H](CC(C)C)NC(=O)[C@H](CCCN)NC(=O)[C@H](C(C)C)NC(=O)[C@H](Cc2ccc(-c3ccccc3)cc2)NC1=O [Compound 1406] ({CH2CO}-Y(Carboxymethyl)[4Pal]DWL[Bip]V[Orn][dL][Dab][Cha]VSCG-NH2; thioether N-14) |
| 4.7 nM | COc1ccc(C[C@@H]2NC(=O)CSC[C@@H](C(=O)N[C@@H](CCN)C(N)=O)NC(=O)[C@H](CCC(=O)O)NC(=O)[C@H](C(C)(C)O)NC(=O)[C@H](CC3CCCCC3)NC(=O)[C@H](CCN)NC(=O)[C@@H](CC(C)C)NC(=O)[C@H](CCCN)NC(=O)[C@H](Cc3ccc(OCC(=O)O)cc3)NC(=O)[C@H](Cc3ccc(-c4ccccc4)cc3)NC(=O)[C@H](Cc3ccc(OCC(=O)O)cc3)NC(=O)[C@H](Cc3cccc(C)c3)NC(=O)[C@H](CC(=O)O)NC(=O)[C@H](Cc3ccc(OCC(=O)O)cc3)NC2=O)cc1 [Compound 2692] ({CH2CO}-Y(Me)Y(Carboxymethyl)D[Phe(3-Me)]Y(Carboxymethyl)[Bip]Y(Carboxymethyl)[Orn][dL][Dab][Cha][Val(3-OH)]EC[Dab]-NH2; thioether N-14) |
| 15 nM | Cc1cccc(C[C@@H]2NC(=O)[C@H](CC(=O)O)NC(=O)[C@H](Cc3ccc(C(=O)O)cc3)NC(=O)[C@H](Cc3ccncc3)NC(=O)CSC[C@@H](C(=O)N[C@@H](CC(N)=O)C(N)=O)NC(=O)[C@H](CCC(=O)O)NC(=O)[C@H](C(C)C)NC(=O)[C@H](CC3CCCCC3)NC(=O)[C@H](CCN)NC(=O)[C@@H](CC(C)C)NC(=O)[C@H](CCCN)NC(=O)[C@H](Cc3ccc(OCC(=O)O)cc3)NC(=O)[C@H](Cc3ccc(-c4ccccc4)cc3)NC(=O)[C@H](Cc3ccc(OCC(=O)O)cc3)NC2=O)c1 [Compound 2304] ({CH2CO}-[4Pal][Phe(4-COOH)]D[Phe(3-Me)]Y(Carboxymethyl)[Bip]Y(Carboxymethyl)[Orn][dL][Dab][Cha]VECN-NH2; thioether N-14) |
